Test results taken from patent publication US9340559B2, “Proteasome inhibitor delanzomib for use in the treatment of lupus” (Cephalon, Inc., priority 2011, dated 2016).

Experiments:
NZM mice [1] = test: Total urine protein (proteinuria), NZM mice (Example 3); assay type: in vivo, mouse; details: Groups 1, 2, 4, and 5
Procedure: FIG. 45 depicts total urine protein (proteinuria) in NZM mice. Urine collected from NZM mice was analyzed for total protein content using a rat urinalysis kit.
Urine samples are acid precipitated for total protein analysis. For urine sample preparation, urine samples are centrifuged at 10,000 rpm for 3 minutes using a tabletop micro-centrifuge. 1-50 μL of urine supernatant is added in duplicate. PBS is added to adjust the volume to 50 μL total. For the turbidity assay: 25 μL of 0.1 N HCl is added into blank columns and 250 μL of 3% sulfosalicyclic acid into the test columns. The microplate is incubated for 10 minutes at RT and plates are read using an ELISA reader with single beam at 450 nm. A standard protein solution is prepared from normal mouse sera and is used as a standard for mouse urinary protein assay by turbidity. Standard preparation is as follows: 0, 5, 10, 15, 20, 30, 40, and 50 μL of a 4 mg/mL mouse sera standard protein solution as provided in the kit are added in duplicate into two columns. PBS is added to individual wells to adjust the final volume to 50 μL. Samples for which enough urine remains are used for Uristix® leukouria analysis. For the Uristix® strip assay, strips are laid out and labeled. Twenty microliters of urine are placed onto each test strip square and incubated for at least 30 seconds before the result is recorded. […]

NZM mice [2] = test: Antinuclear antibody ELISA (anti-Smith, anti-dsDNA), serum of NZM mice (Example 3)
20S proteasome [3] = test: 20S proteasome activity in spleen (ex vivo fluorogenic assay), MRL/lpr mice; details: for PD EOS 20S proteasome, percent change vs vehicle: spleen
IκBα = IκBα accumulation ELISA in kidney 3 hours post dose, MRL/lpr mice; assay type: in vivo, mouse
Procedure: Samples are homogenized frozen using a PT 10-35 Polytron homogenizer (VWR, no. 97036-082). […] Spleen proteasome activity is analyzed using 20S fluorogenic assay (Cayman Chemical Company, Cat #10008041, Lot #0414698-1) and modulation of proteasome activity in the kidney is analyzed using the IκBα accumulation ELISA assay (Cell Signaling, Cat #7355, Lot #17).

20S proteasome [4] = test: 20S proteasome activity in spleen (ex vivo fluorogenic assay), NZM mice (Example 2)
NZM mice [5] = test: Survival, NZM mice, sc/ip dosing (Example 3); assay type: in vivo, mouse; details: Groups 1, 2, and 4
Procedure: FIG. 44 depicts survival of NZM mice across treatment groups for the study duration. NZM mice were treated as outlined in the legend. […] The overall percentage of surviving mice at the 91 day endpoint is listed in parentheses within the legend. * indicates p≦0.05.

MRL/lpr mice = details: 6 control animals, 5 on drug, p=0.03; cited from earlier work
[6] = in vivo; cited from earlier work
NZB/W F1 mice = details: lupus prone NZB/W F1 mice; cited from earlier work

Compound: CC(C)C[C@H](NC(=O)[C@@H](NC(=O)c1cccc(-c2ccccc2)n1)[C@@H](C)O)B(O)O [COMPOUND A, [(1R)-1-[[(2S,3R)-3-hydroxy-2-[6-phenyl-pyridine-2-carbonyl)amino]-1-oxobutyl]amino]-3-methylbutylboronic acid]
- proteinuria compared to vehicle (Group 10) and bortezomib ip (Group 7) (NZM mice [1]): reduced proteinuria
- serum anti-dsDNA ANA decrease vs vehicle (NZM mice [2]; Group 1 (regimen: Table 42)): 79.6%
- serum anti-smith ANA decrease vs vehicle (NZM mice [2]; Group 1 (regimen: Table 42)): 93.8%
- serum anti-dsDNA ANA decrease vs vehicle (NZM mice [2]; Group 2 (regimen: Table 42)): 69.2%
- serum anti-smith ANA decrease vs vehicle (NZM mice [2]; Group 2 (regimen: Table 42)): 85.0%
- serum anti-dsDNA ANA decrease vs vehicle (NZM mice [2]; Group 4 (regimen: Table 42)): 84.1%
- serum anti-smith ANA decrease vs vehicle (NZM mice [2]; Group 4 (regimen: Table 42)): 94.5%
- serum anti-dsDNA ANA decrease vs vehicle (NZM mice [2]; Group 5 (regimen: Table 42)): 81.0%
- serum anti-smith ANA decrease vs vehicle (NZM mice [2]; Group 5 (regimen: Table 42)): 92.4%
- spleen 20S proteasome function decrease vs vehicle (20S proteasome [3]; Group 1): 40%
- spleen 20S proteasome function decrease vs vehicle (20S proteasome [3]; Group 2): 45%
- spleen 20S proteasome function decrease vs vehicle (20S proteasome [3]; Group 3): 41%
- PD EOS 20S proteasome, percent change vs vehicle (20S proteasome [3]; G1: 3 mg/kg iv, 1× wk): −40%
- PD EOS 20S proteasome, percent change vs vehicle (20S proteasome [3]; G2: 3 mg/kg iv, 2× wk): −45%
- PD EOS 20S proteasome, percent change vs vehicle (20S proteasome [3]; G3: 10 mg/kg po, 2× wk): −41%
- PD EOS IκBα accumulation, percent change vs vehicle (IκBα; G1: 3 mg/kg iv, 1× wk): +537%
- PD EOS IκBα accumulation, percent change vs vehicle (IκBα; G2: 3 mg/kg iv, 2× wk): +227%
- PD EOS IκBα accumulation, percent change vs vehicle (IκBα; G3: 10 mg/kg po, 2× wk): +166%
- spleen 20S proteasome inhibition relative to vehicle (20S proteasome [4]; COMPOUND A groups): ~40%
- PD 20S proteasome activity, percent change vs vehicle (20S proteasome [4]; G1 3 mg/kg ip, 1× wk): −42%
- PD 20S proteasome activity, percent change vs vehicle (20S proteasome [4]; G2 3 mg/kg ip, 2× wk): −41%
- survival relative to vehicle (NZM mice [5]): significantly increased survival

Compound: CC(C)C[C@H](NC(=O)[C@H](Cc1ccccc1)NC(=O)c1cnccn1)B(O)O [bortezomib, reference compound]
- survival (MRL/lpr mice): significantly improved survival
- serious side effects [6]: polyneuropathy, thrombocytopenia and gastrointestinal complications
- serum anti-dsDNA ANA decrease vs vehicle (NZM mice [2]; Group 7, ip): 25.8%
- serum anti-smith ANA decrease vs vehicle (NZM mice [2]; Group 7, ip): 66.7%
- serum anti-dsDNA ANA decrease vs vehicle (NZM mice [2]; Group 8, sc): 55.4%
- serum anti-smith ANA decrease vs vehicle (NZM mice [2]; Group 8, sc): 85.7%
- spleen 20S proteasome function decrease vs vehicle (20S proteasome [3]; Group 4): 40%
- spleen 20S proteasome function decrease vs vehicle (20S proteasome [3]; Group 5): 41%
- PD EOS 20S proteasome, percent change vs vehicle (20S proteasome [3]; G4: 0.5 mg/kg iv, 1× wk): −40%
- PD EOS 20S proteasome, percent change vs vehicle (20S proteasome [3]; G5: 0.3 mg/kg iv, 2× wk): −41%
- proteinuria (NZB/W F1 mice): significantly reduced proteinuria
- renal pathology (NZB/W F1 mice): improved renal pathology
- survival compared to vehicle (NZB/W F1 mice): markedly prolonged survival
- PD EOS IκBα accumulation, percent change vs vehicle (IκBα; G4: 0.5 mg/kg iv, 1× wk): +340%
- PD EOS IκBα accumulation, percent change vs vehicle (IκBα; G5: 0.3 mg/kg iv, 2× wk): +99%
- PD 20S proteasome activity, percent change vs vehicle (20S proteasome [4]; G3 0.3 mg/kg ip, 1× wk): −14%
- PD 20S proteasome activity, percent change vs vehicle (20S proteasome [4]; G4 0.3 mg/kg ip, 2× wk): −27%
